Experimental data: ChEMBL document CHEMBL3351675, “Novel benzenesulfonylureas containing thiophenylpyrazoline moiety as potential antidiabetic and anticancer agents” (Bioorg Med Chem Lett, 2014)
The source made the active and inactive calls. The calls are words filed in the database; no cut-off is given here.

How the values were obtained:
[1] = tested on: SK-MEL-5; experiment: Anticancer activity against human SK-MEL-5 cells assessed as cell growth level at 10 uM after 48 hrs by sulforhodamine B assay; format: functional
[2] = tested on: IGROV-1; experiment: Anticancer activity against human IGROV1 cells assessed as cell growth level at 10 uM after 48 hrs by sulforhodamine B assay; format: functional
[3] = Anticancer activity against human OVCAR5 cells assessed as cell growth level at 10 uM after 48 hrs by sulforhodamine B assay; format: functional, OVCAR-5
[4] = tested on: SN12C; experiment: Anticancer activity against human SN12C cells assessed as cell growth level at 10 uM after 48 hrs by sulforhodamine B assay; format: functional
[5] = tested on: Rattus norvegicus; experiment: Antidiabetic activity in Wistar rat model of streptozotocin-induced diabetes assessed as reduction in plasma glucose level at 30 mg/kg, po and dosage repeated for 15 days by GOD-POD method; format: functional, organism-based; design: dose 30 mg/kg
[6] = tested on: Rattus norvegicus; experiment: Effect on body weight in Wistar rat model of streptozotocin-induced diabetes at 30 mg/kg, po measured over 15 days; format: ADME, organism-based; design: dose 30 mg/kg, route oral; conditions: in vivo, 360 h
[7] = tested on: HL-60(TB); experiment: Anticancer activity against human HL-60(TB) cells assessed as cell growth level at 10 uM after 48 hrs by sulforhodamine B assay; format: functional
[8] = tested on: A549; experiment: Anticancer activity against human A549/ATCC cells assessed as cell growth level at 10 uM after 48 hrs by sulforhodamine B assay; format: functional
[9] = tested on: NCI-H23; experiment: Anticancer activity against human NCI-H23 cells assessed as cell growth level at 10 uM after 48 hrs by sulforhodamine B assay; format: functional
[10] = tested on: NCI-H322M; experiment: Anticancer activity against human NCI-H322M cells assessed as cell growth level at 10 uM after 48 hrs by sulforhodamine B assay; format: functional
[11] = tested on: NCI-H522; experiment: Anticancer activity against human NCI-H522 cells assessed as cell growth level at 10 uM after 48 hrs by sulforhodamine B assay; format: functional
[12] = Anticancer activity against human COLO205 cells assessed as cell growth level at 10 uM after 48 hrs by sulforhodamine B assay; format: functional, COLO 205
[13] = Anticancer activity against human HCC2998 cells assessed as cell growth level at 10 uM after 48 hrs by sulforhodamine B assay; format: functional, HCC 2998
[14] = tested on: HT-29; experiment: Anticancer activity against human HT-29 cells assessed as cell growth level at 10 uM after 48 hrs by sulforhodamine B assay; format: functional
[15] = tested on: SF-268; experiment: Anticancer activity against human SF268 cells assessed as cell growth level at 10 uM after 48 hrs by sulforhodamine B assay; format: functional
[16] = Anticancer activity against human SF539 cells assessed as cell growth level at 10 uM after 48 hrs by sulforhodamine B assay; format: functional, SF-539
[17] = tested on: SNB-75; experiment: Anticancer activity against human SNB75 cells assessed as cell growth level at 10 uM after 48 hrs by sulforhodamine B assay; format: functional
[18] = tested on: Rattus norvegicus; experiment: Increase in body weight in Wistar rat model of streptozotocin-induced diabetes at 30 mg/kg, po measured over 15 days; format: ADME, organism-based; design: dose 30 mg/kg, route oral; conditions: in vivo, 360 h

Compound | Activity [1] [%] | Activity [2] [%] | Activity [3] [%] | Activity [4] [%] | inhibition [5] | Activity [6] | Activity [7] [%] | Activity [8] [%] | Activity [9] [%] | Activity [10] [%] | Activity [11] [%] | Activity [12] [%] | Activity [13] [%] | Activity [14] [%] | Activity [15] [%] | Activity [16] [%] | Activity [17] [%] | Activity [18]
COc1ccc(NC(=O)NS(=O)(=O)c2ccc(N3N=C(c4cccs4)CC3c3ccc(C)s3)cc2)cc1 (centres undefined) | 48.27 | 108.05 | 113.48 | 111.79 | Active | Non-toxic | 102.86 | 5.45 | 97.55 | 102.37 | 87.33 | -63.47 | 111.31 | 119.52 | 97.85 | 104.31 | 99.87 | –
Cc1ccc(NC(=O)NS(=O)(=O)c2ccc(N3N=C(c4cccs4)CC3c3ccc(C)s3)cc2)cc1 (centres undefined) | 47.78 | 107.76 | 114.78 | 111.21 | – | Non-toxic | 126.37 | 101.55 | 98.53 | 103.57 | 91.51 | -54.62 | 108.61 | 127.85 | 95.62 | 98.31 | 93.74 | Toxic
